# Experimental data published in US4293489A, “Derivatives of A-30912A nucleus” (Eli Lilly and Company, priority 1980, dated 1981).
# Read-outs that look alike come from different tables or passages of the source. Starred links: 1 amine or outer side, 2 acyl side, 3 side chain; linkers in the order of their positions; H or OH if unused. Positions of bridges follow the written chain, without caps; N, C: chain ends. Non-standard residues stand in square brackets, D forms with d. Residues, ends and D or L forms follow the SMILES beside them. *: point of attachment. Orn(4R-OH,5R-OH) = O=C([C@H](C[C@@H](O)[C@@H](O)N[*:3])N[*:1])[*:2]; hTyr(3S-OH,4S-OH) = N[C@H](C(=O)O)[C@H](O)[C@@H](O)c1ccc(O)cc1; Benzoyl(4-dodecyloxy) = CCCCCCCCCCCCOc1ccc(C(=O)*)cc1; Benzoyl(4-OC10H21) = CCCCCCCCCCOc1ccc(C(=O)*)cc1; Pro(3S-OH,4S-Me) = C[C@H]1CN[C@H](C(=O)O)[C@H]1O; Benzoyl(4-octyl) = CCCCCCCCc1ccc(C(=O)*)cc1; X20 = CCCCCCCCCCCCCCOc1ccc(C(=O)*)cc1; X18 = CCCCCCCCCCCCOc1ccc(CC(=O)*)cc1; X3 = CCCCCCCCCCCCCCSc1ccc(C(=O)*)cc1; X10 = CCCCCCCCCCCCOc1cccc(C(=O)*)c1; X1 = CCCCCCCCCCCCSc1ccc(C(=O)*)cc1; X16 = CCCCCCCCOc1ccc(C=CC(=O)*)cc1; X11 = CCCCCCCCOc1ccc(OCC(=O)*)cc1; Hyp = O=C(O)[C@@H]1C[C@@H](O)CN1; X15 = CCCCCCCCOc1cccc(CC(=O)*)c1; X19 = CCCCCCOc1ccc(C=CC(=O)*)cc1; X6 = CCCCCCCCCCSc1ccc(C(=O)*)cc1; X12 = CCCCCCOc1ccc(CCC(=O)*)cc1; X7 = CCCCCCCCSc1ccc(C(=O)*)cc1; X14 = CCCCCCOc1ccc(C(=O)*)cc1; X17 = CCCCOc1ccc(CCC(=O)*)cc1
# Key:
# [1] = test system: Candida albicans A-26; assay: Therapeutic activity against Candida albicans A-26 infection in mice, ED50; type: in vivo; details: Candida albicans, A26, sc, doses 0, 4 and 24 hours post infection, increase in survival time vs control, Reed-Muench, read-out: ED50
# Method: (§1) The results of in vivo tests to evaluate the effectiveness of the compounds of Examples 3 and 4 against an infection caused by Candida albicans A-26 in mice are given in Table 13, where activity is measured by the ED50 value (the dose in mg/kg. required to cure 50% of the test animals). In a separate test, the results of which are also summarized in Table 13, activity is indicated by the lowest dose at which a significant anti-fungal effect is observed. In this test, groups of male albino mice (specific pathogen free), weighing 18 to 20 grams, are infected intravenously with Candida albicans A-26. The animals are X-irradiated 24 hours prior to infection at about 50 roentgens per minute for 8 minutes (400 total dose) to reduce immune responses to the infecting organism. At 0, 4, and 24 hours post infection each group of mice is given graded doses subcutaneously of the test compound as a suspension in 33% polyethylene glycol (PEG)-water. The day of death for each animal is recorded.
# (§2) *Dosage Schedules: A. = 40, 20, 15 and 10 mg/kg; Dosages given 0, 4, and
# (§3) 24 hours post injection as suspension of test compound in 30% PEGH2
# (§4) O. Number of mice receiving test compounds at each dosage level: 6 mice
# (§5) per group. Number of mice in control (untreated) group: 10 mice per group
# **As measured by increase in survival time of treated animals versus
# control, calculated by method of Reed v Mueuch, American J. Hygiene, 27,
# [2] = test system: Candida albicans A-26; assay: Therapeutic activity against Candida albicans A-26 infection in X-irradiated mice, lowest active dose; type: in vivo; details: A26, light or radiation study, sc
# Method: as §1, §2, §3, §4, §5
# [3] = in vivo; details: mouse, po, 416 mg/kg
# [4] = X-irradiated mice, subcutaneous at 0, 4 and 24 hours post infection, survival, read-out: Lowest Active Dose
# [5] = read-out: Lowest Active Dose, X-irradiated mice, subcutaneous at 0, 4 and 24 hours post infection, survival
Compound,ED50 [1] [mg/kg],"minimal effective dose [2, 4] [mg/kg]","minimal effective dose [2, 5] [mg/kg]",Cmax [3] [ng/mL]
"CCCCCCCCCCCCOc1cccc(C(=O)N[C@H]2C[C@@H](O)[C@@H](O)NC(=O)[C@@H]3[C@@H](O)[C@@H](C)CN3C(=O)[C@H]([C@@H](C)O)NC(=O)[C@H]([C@H](O)[C@@H](O)c3ccc(O)cc3)NC(=O)[C@@H]3C[C@@H](O)CN3C(=O)[C@H]([C@@H](C)O)NC2=O)c1 [drawing 165] (X10-[Orn(4R-OH,5R-OH)]T[Hyp][hTyr(3S-OH,4S-OH)]T[Pro(3S-OH,4S-Me)]; lactam 1-C)",> 50,> 40,,
"CCCCCCOc1ccc(C(=O)N[C@H]2C[C@@H](O)[C@@H](O)NC(=O)[C@@H]3[C@@H](O)[C@@H](C)CN3C(=O)[C@H]([C@@H](C)O)NC(=O)[C@H]([C@H](O)[C@@H](O)c3ccc(O)cc3)NC(=O)[C@@H]3C[C@@H](O)CN3C(=O)[C@H]([C@@H](C)O)NC2=O)cc1 [drawing 167] (X14-[Orn(4R-OH,5R-OH)]T[Hyp][hTyr(3S-OH,4S-OH)]T[Pro(3S-OH,4S-Me)]; lactam 1-C)",28,20,,
"CCCCCCCCc1ccc(C(=O)N[C@H]2C[C@@H](O)[C@@H](O)NC(=O)[C@@H]3[C@@H](O)[C@@H](C)CN3C(=O)[C@H]([C@@H](C)O)NC(=O)[C@H]([C@H](O)[C@@H](O)c3ccc(O)cc3)NC(=O)[C@@H]3C[C@@H](O)CN3C(=O)[C@H]([C@@H](C)O)NC2=O)cc1 [drawing 169] ({Benzoyl(4-octyl)}-[Orn(4R-OH,5R-OH)]T[Hyp][hTyr(3S-OH,4S-OH)]T[Pro(3S-OH,4S-Me)]; lactam 1-C)",30,40,,
"CCCCOc1ccc(CCC(=O)N[C@H]2C[C@@H](O)[C@@H](O)NC(=O)[C@@H]3[C@@H](O)[C@@H](C)CN3C(=O)[C@H]([C@@H](C)O)NC(=O)[C@H]([C@H](O)[C@@H](O)c3ccc(O)cc3)NC(=O)[C@@H]3C[C@@H](O)CN3C(=O)[C@H]([C@@H](C)O)NC2=O)cc1 [drawing 170] (X17-[Orn(4R-OH,5R-OH)]T[Hyp][hTyr(3S-OH,4S-OH)]T[Pro(3S-OH,4S-Me)]; lactam 1-C)",> 40,40,,
"CCCCCCOc1ccc(CCC(=O)N[C@H]2C[C@@H](O)[C@@H](O)NC(=O)[C@@H]3[C@@H](O)[C@@H](C)CN3C(=O)[C@H]([C@@H](C)O)NC(=O)[C@H]([C@H](O)[C@@H](O)c3ccc(O)cc3)NC(=O)[C@@H]3C[C@@H](O)CN3C(=O)[C@H]([C@@H](C)O)NC2=O)cc1 [drawing 171] (X12-[Orn(4R-OH,5R-OH)]T[Hyp][hTyr(3S-OH,4S-OH)]T[Pro(3S-OH,4S-Me)]; lactam 1-C)",9.2,,5,
"CCCCCCOc1ccc(C=CC(=O)N[C@H]2C[C@@H](O)[C@@H](O)NC(=O)[C@@H]3[C@@H](O)[C@@H](C)CN3C(=O)[C@H]([C@@H](C)O)NC(=O)[C@H]([C@H](O)[C@@H](O)c3ccc(O)cc3)NC(=O)[C@@H]3C[C@@H](O)CN3C(=O)[C@H]([C@@H](C)O)NC2=O)cc1 [drawing 175] (X19-[Orn(4R-OH,5R-OH)]T[Hyp][hTyr(3S-OH,4S-OH)]T[Pro(3S-OH,4S-Me)]; lactam 1-C)",21.8,,5,
"CCCCCCCCOc1ccc(C=CC(=O)N[C@H]2C[C@@H](O)[C@@H](O)NC(=O)[C@@H]3[C@@H](O)[C@@H](C)CN3C(=O)[C@H]([C@@H](C)O)NC(=O)[C@H]([C@H](O)[C@@H](O)c3ccc(O)cc3)NC(=O)[C@@H]3C[C@@H](O)CN3C(=O)[C@H]([C@@H](C)O)NC2=O)cc1 [drawing 176] (X16-[Orn(4R-OH,5R-OH)]T[Hyp][hTyr(3S-OH,4S-OH)]T[Pro(3S-OH,4S-Me)]; lactam 1-C)",3.75,,5,
"CCCCCCCCOc1cccc(CC(=O)N[C@H]2C[C@@H](O)[C@@H](O)NC(=O)[C@@H]3[C@@H](O)[C@@H](C)CN3C(=O)[C@H]([C@@H](C)O)NC(=O)[C@H]([C@H](O)[C@@H](O)c3ccc(O)cc3)NC(=O)[C@@H]3C[C@@H](O)CN3C(=O)[C@H]([C@@H](C)O)NC2=O)c1 [drawing 177] (X15-[Orn(4R-OH,5R-OH)]T[Hyp][hTyr(3S-OH,4S-OH)]T[Pro(3S-OH,4S-Me)]; lactam 1-C)",> 40,,10,
"CCCCCCCCCCCCOc1ccc(CC(=O)N[C@H]2C[C@@H](O)[C@@H](O)NC(=O)[C@@H]3[C@@H](O)[C@@H](C)CN3C(=O)[C@H]([C@@H](C)O)NC(=O)[C@H]([C@H](O)[C@@H](O)c3ccc(O)cc3)NC(=O)[C@@H]3C[C@@H](O)CN3C(=O)[C@H]([C@@H](C)O)NC2=O)cc1 [drawing 178] (X18-[Orn(4R-OH,5R-OH)]T[Hyp][hTyr(3S-OH,4S-OH)]T[Pro(3S-OH,4S-Me)]; lactam 1-C)",8.4,,10,
"CCCCCCCCOc1ccc(OCC(=O)N[C@H]2C[C@@H](O)[C@@H](O)NC(=O)[C@@H]3[C@@H](O)[C@@H](C)CN3C(=O)[C@H]([C@@H](C)O)NC(=O)[C@H]([C@H](O)[C@@H](O)c3ccc(O)cc3)NC(=O)[C@@H]3C[C@@H](O)CN3C(=O)[C@H]([C@@H](C)O)NC2=O)cc1 [drawing 179] (X11-[Orn(4R-OH,5R-OH)]T[Hyp][hTyr(3S-OH,4S-OH)]T[Pro(3S-OH,4S-Me)]; lactam 1-C)",16.8,,10,
"CCCCCCCCCCOc1ccc(C(=O)N[C@H]2C[C@@H](O)[C@@H](O)NC(=O)[C@@H]3[C@@H](O)[C@@H](C)CN3C(=O)[C@H]([C@@H](C)O)NC(=O)[C@H]([C@H](O)[C@@H](O)c3ccc(O)cc3)NC(=O)[C@@H]3C[C@@H](O)CN3C(=O)[C@H]([C@@H](C)O)NC2=O)cc1 [drawing 182] ({Benzoyl(4-OC10H21)}-[Orn(4R-OH,5R-OH)]T[Hyp][hTyr(3S-OH,4S-OH)]T[Pro(3S-OH,4S-Me)]; lactam 1-C)",,,,< 100
"CCCCCCCCCCCCOc1ccc(C(=O)N[C@H]2C[C@@H](O)[C@@H](O)NC(=O)[C@@H]3[C@@H](O)[C@@H](C)CN3C(=O)[C@H]([C@@H](C)O)NC(=O)[C@H]([C@H](O)[C@@H](O)c3ccc(O)cc3)NC(=O)[C@@H]3C[C@@H](O)CN3C(=O)[C@H]([C@@H](C)O)NC2=O)cc1 [drawing 183] ({Benzoyl(4-dodecyloxy)}-[Orn(4R-OH,5R-OH)]T[Hyp][hTyr(3S-OH,4S-OH)]T[Pro(3S-OH,4S-Me)]; lactam 1-C)",,,,5000
"CCCCCCCCCCCCCCOc1ccc(C(=O)N[C@H]2C[C@@H](O)[C@@H](O)NC(=O)[C@@H]3[C@@H](O)[C@@H](C)CN3C(=O)[C@H]([C@@H](C)O)NC(=O)[C@H]([C@H](O)[C@@H](O)c3ccc(O)cc3)NC(=O)[C@@H]3C[C@@H](O)CN3C(=O)[C@H]([C@@H](C)O)NC2=O)cc1 [drawing 184] (X20-[Orn(4R-OH,5R-OH)]T[Hyp][hTyr(3S-OH,4S-OH)]T[Pro(3S-OH,4S-Me)]; lactam 1-C)",,,,5000
"CCCCCCCCSc1ccc(C(=O)N[C@H]2C[C@@H](O)[C@@H](O)NC(=O)[C@@H]3[C@@H](O)[C@@H](C)CN3C(=O)[C@H]([C@@H](C)O)NC(=O)[C@H]([C@H](O)[C@@H](O)c3ccc(O)cc3)NC(=O)[C@@H]3C[C@@H](O)CN3C(=O)[C@H]([C@@H](C)O)NC2=O)cc1 [drawing 185] (X7-[Orn(4R-OH,5R-OH)]T[Hyp][hTyr(3S-OH,4S-OH)]T[Pro(3S-OH,4S-Me)]; lactam 1-C)",,,,< 100
"CCCCCCCCCCSc1ccc(C(=O)N[C@H]2C[C@@H](O)[C@@H](O)NC(=O)[C@@H]3[C@@H](O)[C@@H](C)CN3C(=O)[C@H]([C@@H](C)O)NC(=O)[C@H]([C@H](O)[C@@H](O)c3ccc(O)cc3)NC(=O)[C@@H]3C[C@@H](O)CN3C(=O)[C@H]([C@@H](C)O)NC2=O)cc1 [drawing 186] (X6-[Orn(4R-OH,5R-OH)]T[Hyp][hTyr(3S-OH,4S-OH)]T[Pro(3S-OH,4S-Me)]; lactam 1-C)",,,,5000
"CCCCCCCCCCCCSc1ccc(C(=O)N[C@H]2C[C@@H](O)[C@@H](O)NC(=O)[C@@H]3[C@@H](O)[C@@H](C)CN3C(=O)[C@H]([C@@H](C)O)NC(=O)[C@H]([C@H](O)[C@@H](O)c3ccc(O)cc3)NC(=O)[C@@H]3C[C@@H](O)CN3C(=O)[C@H]([C@@H](C)O)NC2=O)cc1 [drawing 187] (X1-[Orn(4R-OH,5R-OH)]T[Hyp][hTyr(3S-OH,4S-OH)]T[Pro(3S-OH,4S-Me)]; lactam 1-C)",,,,30000
"CCCCCCCCCCCCCCSc1ccc(C(=O)N[C@H]2C[C@@H](O)[C@@H](O)NC(=O)[C@@H]3[C@@H](O)[C@@H](C)CN3C(=O)[C@H]([C@@H](C)O)NC(=O)[C@H]([C@H](O)[C@@H](O)c3ccc(O)cc3)NC(=O)[C@@H]3C[C@@H](O)CN3C(=O)[C@H]([C@@H](C)O)NC2=O)cc1 [drawing 188] (X3-[Orn(4R-OH,5R-OH)]T[Hyp][hTyr(3S-OH,4S-OH)]T[Pro(3S-OH,4S-Me)]; lactam 1-C)",,,,230000
